From publication doi:10.1101/2023.11.24.568596v1 (biorxiv, 2023)

Tests used:
Settings in all cases: binder
MST1 = molecular target: T1, MST1 (Homo sapiens, UniProt Q13043)
T1 sequence (Q13043 1-487): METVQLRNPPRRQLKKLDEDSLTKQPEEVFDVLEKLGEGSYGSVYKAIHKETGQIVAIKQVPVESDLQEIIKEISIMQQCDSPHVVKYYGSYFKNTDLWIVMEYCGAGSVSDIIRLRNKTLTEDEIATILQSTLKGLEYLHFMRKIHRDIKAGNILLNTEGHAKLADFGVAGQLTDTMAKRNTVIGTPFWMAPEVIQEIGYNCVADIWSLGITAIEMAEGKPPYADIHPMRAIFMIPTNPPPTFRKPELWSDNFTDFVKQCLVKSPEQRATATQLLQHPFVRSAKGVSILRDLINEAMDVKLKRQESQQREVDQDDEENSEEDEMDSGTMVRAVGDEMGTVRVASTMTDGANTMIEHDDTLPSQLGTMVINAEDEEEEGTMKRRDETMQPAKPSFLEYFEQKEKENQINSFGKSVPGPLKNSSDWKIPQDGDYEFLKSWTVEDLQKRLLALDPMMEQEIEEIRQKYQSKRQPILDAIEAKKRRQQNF

MST2 = molecular target: T2, MST2 (Homo sapiens, UniProt Q13188)
T2 sequence (Q13188 1-491): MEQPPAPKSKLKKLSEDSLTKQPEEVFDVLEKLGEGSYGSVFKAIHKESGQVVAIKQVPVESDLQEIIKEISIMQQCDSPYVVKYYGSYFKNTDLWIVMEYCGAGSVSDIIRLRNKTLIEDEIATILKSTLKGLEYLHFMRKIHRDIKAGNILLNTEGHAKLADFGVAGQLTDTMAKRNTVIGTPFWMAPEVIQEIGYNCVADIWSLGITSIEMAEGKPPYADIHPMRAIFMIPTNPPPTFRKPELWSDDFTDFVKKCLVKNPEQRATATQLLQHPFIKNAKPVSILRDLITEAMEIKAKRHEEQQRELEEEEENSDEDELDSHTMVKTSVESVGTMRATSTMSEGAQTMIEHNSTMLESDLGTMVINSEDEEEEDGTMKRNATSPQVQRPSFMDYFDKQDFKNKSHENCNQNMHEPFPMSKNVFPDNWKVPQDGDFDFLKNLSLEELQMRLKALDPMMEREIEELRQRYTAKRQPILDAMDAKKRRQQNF

MST3 = MST3 (Homo sapiens, UniProt Q9Y6E0)
MST3, sequence (Q9Y6E0 whole entry): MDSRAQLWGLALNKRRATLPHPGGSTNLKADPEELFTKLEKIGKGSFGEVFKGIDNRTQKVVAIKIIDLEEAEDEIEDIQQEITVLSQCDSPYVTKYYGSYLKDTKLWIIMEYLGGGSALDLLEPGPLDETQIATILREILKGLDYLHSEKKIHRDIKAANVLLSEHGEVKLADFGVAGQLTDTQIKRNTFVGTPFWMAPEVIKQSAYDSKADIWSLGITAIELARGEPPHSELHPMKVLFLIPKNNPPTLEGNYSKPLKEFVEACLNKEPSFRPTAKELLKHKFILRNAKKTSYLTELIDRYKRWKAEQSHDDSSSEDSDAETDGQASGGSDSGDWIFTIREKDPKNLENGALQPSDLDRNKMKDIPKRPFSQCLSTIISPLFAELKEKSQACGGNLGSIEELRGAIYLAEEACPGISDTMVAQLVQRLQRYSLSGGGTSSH

MST4 = MST4 (Homo sapiens, UniProt Q9P289)
MST4, sequence (Q9P289 whole entry): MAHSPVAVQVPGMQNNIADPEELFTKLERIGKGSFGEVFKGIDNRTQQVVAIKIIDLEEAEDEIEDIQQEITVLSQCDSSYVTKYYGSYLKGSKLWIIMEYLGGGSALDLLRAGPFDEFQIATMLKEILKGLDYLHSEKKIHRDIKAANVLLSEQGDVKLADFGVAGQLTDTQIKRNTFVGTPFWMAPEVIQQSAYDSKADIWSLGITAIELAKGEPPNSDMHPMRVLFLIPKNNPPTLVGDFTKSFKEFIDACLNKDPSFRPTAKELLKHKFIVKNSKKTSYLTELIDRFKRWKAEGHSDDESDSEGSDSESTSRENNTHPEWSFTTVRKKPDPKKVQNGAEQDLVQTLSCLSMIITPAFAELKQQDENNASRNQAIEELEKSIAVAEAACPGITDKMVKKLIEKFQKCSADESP

PAK1 = PAK1 (Homo sapiens, UniProt Q13153)
PAK1, sequence (Q13153 whole entry): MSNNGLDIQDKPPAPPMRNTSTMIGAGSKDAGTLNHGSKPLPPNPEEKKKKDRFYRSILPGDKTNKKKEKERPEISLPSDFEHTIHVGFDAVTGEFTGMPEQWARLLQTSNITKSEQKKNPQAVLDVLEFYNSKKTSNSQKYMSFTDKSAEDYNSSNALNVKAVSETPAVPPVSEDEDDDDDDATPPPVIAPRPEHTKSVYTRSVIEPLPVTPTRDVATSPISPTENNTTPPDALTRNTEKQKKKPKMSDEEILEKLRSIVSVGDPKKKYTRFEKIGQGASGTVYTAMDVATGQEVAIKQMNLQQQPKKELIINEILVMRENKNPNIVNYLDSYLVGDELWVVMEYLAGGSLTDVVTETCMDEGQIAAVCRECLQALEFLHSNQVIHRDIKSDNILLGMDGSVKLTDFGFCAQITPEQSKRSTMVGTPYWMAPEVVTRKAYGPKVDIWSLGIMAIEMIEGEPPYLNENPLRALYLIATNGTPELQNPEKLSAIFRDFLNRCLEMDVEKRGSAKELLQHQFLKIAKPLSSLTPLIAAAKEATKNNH

Row | Structure (SMILES) | dTm MST1 (MST1) | dTm MST2 (MST2) | dTm MST3 (MST3) | dTm MST4 (MST4) | dTm PAK1 (PAK1)
1 | CNc1ncc2cc(-c3ccc(-c4cccc(C)n4)cc3Cl)c(=O)n(CCCO)c2n1 [compound 15, 6-(2-Chloro-4-(6-methylpyridin-2-yl)phenyl)-8-(3-hydroxypropyl)-2-(methylamino)-pyrido[2,3-d]pyrimidin-7(8H)-one] | 3.4 °C | 6.3 °C | 6.2 °C | 5.0 °C | 4.5 °C
2 | CNc1ncc2cc(-c3ccc(-c4cccc(C)n4)cc3Cl)c(=O)n(CCCCOC)c2n1 [compound 13, 6-(2-Chloro-4-(6-methylpyridin-2-yl)phenyl)-8-(4-methoxybutyl)-2-(methylamino)-pyrido[2,3-d]pyrimidin-7(8H)-one] | 3.3 °C | 8.6 °C | 6.2 °C | 3.6 °C | 4.8 °C
3 | CNc1ncc2cc(-c3ccc(-c4cccc(C)n4)cc3Cl)c(=O)n(CCCCCO)c2n1 [compound 17, 6-(2-Chloro-4-(6-methylpyridin-2-yl)phenyl)-8-(5-hydroxypentyl)-2-(methylamino)-pyrido[2,3-d]pyrimidin-7(8H)-one] | 2.4 °C | 6.1 °C | 6.6 °C | 5.5 °C | 6.0 °C
4 | CNc1ncc2cc(-c3ccc(-c4cccc(C)n4)cc3Cl)c(=O)n(CCCN)c2n1 [compound 19, 8-(3-Aminopropyl)-6-(2-chloro-4-(6-methylpyridin-2-yl)phenyl)-2-(methylamino)-pyrido[2,3-d]pyrimidin-7(8H)-one] | 2.8 °C | 4.4 °C | 7.9 °C | 7.2 °C | 4.0 °C
5 | CNc1ncc2cc(-c3ccc(-c4cccc(C)n4)cc3Cl)c(=O)n(CCO)c2n1 [compound 14, 6-(2-Chloro-4-(6-methylpyridin-2-yl)phenyl)-8-(2-hydroxyethyl)-2-(methylamino)-pyrido[2,3-d]pyrimidin-7(8H)-one] | 4.0 °C | 9.0 °C | 7.8 °C | 5.8 °C | 5.0 °C
6 | CNc1ncc2cc(-c3ccc(-c4cccc(C)n4)cc3Cl)c(=O)n(CCCCO)c2n1 [compound 16, 6-(2-Chloro-4-(6-methylpyridin-2-yl)phenyl)-8-(4-hydroxybutyl)-2-(methylamino)-pyrido[2,3-d]pyrimidin-7(8H)-one] | 3.8 °C | 7.1 °C | 5.7 °C | 5.0 °C | 5.0 °C
7 | CNc1ncc2cc(-c3ccc(-c4cccc(C)n4)cc3Cl)c(=O)n(CCCCCN)c2n1 [compound 21, 8-(5-Aminopentyl)-6-(2-chloro-4-(6-methylpyridin-2-yl)phenyl)-2-(methylamino)-pyrido[2,3-d]pyrimidin-7(8H)-one] | 5.2 °C | 10.7 °C | 9.2 °C | 7.1 °C | 6.3 °C
8 | CNc1ncc2cc(-c3ccc(-c4cccc(C)n4)cc3Cl)c(=O)n(CCN)c2n1 [compound 18, 8-(2-Aminoethyl)-6-(2-chloro-4-(6-methylpyridin-2-yl)phenyl)-2-(methylamino)pyrido[2,3-d]pyrimidin-7(8H)-one] | 1.6 °C | 1.6 °C | 5.5 °C | 3.3 °C | 1.3 °C

Results, then the compound that gave them:

Row | dTm MST1 (MST1) | dTm MST2 (MST2) | dTm MST3 (MST3) | dTm MST4 (MST4) | dTm PAK1 (PAK1) | Structure (SMILES)
9 | 3.6 °C | 6.2 °C | 5.1 °C | 4.1 °C | 5.1 °C | CNc1ncc2cc(-c3ccc(-c4cccc(C)n4)cc3Cl)c(=O)n(CCCOC)c2n1 [compound 12, 6-(2-Chloro-4-(6-methylpyridin-2-yl)phenyl)-8-(3-methoxypropyl)-2-(methylamino)-pyrido[2,3-d]pyrimidin-7(8H)-one]
10 |  | 0.3 °C | 0.6 °C |  |  | CNc1ncc2cc(-c3ccc(-c4cccc(C)n4)cc3Cl)c(O)nc2n1 [compound 9, 6-(2-Chloro-4-(6-methylpyridin-2-yl)phenyl)-2-(methylamino)pyrido[2,3-d]pyrimidin-7-ol]
11 | 1.6 °C | 1.3 °C | 3.7 °C | 1.6 °C | 3.2 °C | CNc1ncc2cc(-c3ccc(-c4cccc(C)n4)cc3Cl)c(=O)n(C)c2n1 [compound 10, 6-(2-Chloro-4-(6-methylpyridin-2-yl)phenyl)-8-methyl-2-(methylamino)pyrido[2,3-d]pyrimidin-7(8H)-one]
12 | 3.9 °C | 5.0 °C | 6.7 °C | 4.4 °C | 4.1 °C | CNc1ncc2cc(-c3ccc(-c4cccc(C)n4)cc3Cl)c(=O)n(CCOC)c2n1 [compound 11, 6-(2-Chloro-4-(6-methylpyridin-2-yl)phenyl)-8-(2-methoxyethyl)-2-(methylamino)-pyrido[2,3-d]pyrimidin-7(8H)-one]
